Source: paper PMC7337064, “Parsing the functional specificity of Siderocalin/Lipocalin 2/NGAL for siderophores and related small-molecule ligands” (Journal of Structural Biology: X, 2019)
“Also recorded” adds a separate entry of the source. Read-outs that look alike come from different tables or passages of the source.

Columns and labels:
Scn [1] = target: T1, Scn (Homo sapiens, UniProt P80188); conditions: ref Abergel et al., 2006a, cited from earlier work
T1 construct: made in house

Scn [2] = target: T1, Scn; conditions: cited from earlier work; for binding to Scn, qualitative binding assays: ref Holmes et al., 2005
human Scn (C87S) = target: T2, human Scn (C87S) (Homo sapiens, UniProt P80188, C107S); test: crystallographic test of candidate ligand binding in the Scn calyx
T2 construct: made in house
T2 sequence (P80188 21-198 C107S): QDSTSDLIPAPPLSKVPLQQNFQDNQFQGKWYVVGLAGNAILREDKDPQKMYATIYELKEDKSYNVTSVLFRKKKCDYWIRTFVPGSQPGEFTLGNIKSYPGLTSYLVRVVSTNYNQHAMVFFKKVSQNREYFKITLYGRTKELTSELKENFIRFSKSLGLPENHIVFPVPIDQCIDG
Text: Pseudomonas aeruginosa is a Gram-negative γ-proteobacterium which can cause acute and chronic infections ranging from septicemia, urinary infections, wound colonization, and chronic lung colonization in cystic fibrosis patients ([Cornelis and Dingemans, 2013]). P. aeruginosa produces two chemically-distinct siderophores, pyoverdine (PVD) and PCH, with relatively high or low affinities for iron, respectively. […] The quite large PVD structure would also not be expected to fit within the Scn calyx, nor would the structure of PCH-chelated iron be expected to fit within the key binding pocket, due to tight steric constraints around the iron center imposed by K125 and K134. A preliminary crystal structure of a Scn/PCH complex (3U03.pdb) was deposited in the Protein Databank (PDB, ([Berman et al., 2000])) by a structural genomics consortium. […] First, using the deposited diffraction data, it was readily apparent that the PCH ligand as modeled sat in negative electron density in difference Fourier syntheses (Fig. 7A). Second, this particular crystal form of Scn usually contains three molecules in the asymmetric unit, though only two had been modeled in the deposited structure. Using the deposited diffraction data, we re-refined the structure (Table 2), successfully placing the third Scn molecule and improving refinement statistics: Rfree/Rwork values decreased from 0.303/0.269 (3U03.pdb) to 0.253/0.235 (Table 2).
Though hexadentate catecholate siderophores have much higher complexation constants, bidentate catecholamine hormones (e.g. norepinephrine, NE) are capable of chelating iron in 3:1 complexes, and can serve to promote bacterial growth, at least in vitro ([O'Donnell et al., 2006]). […] However, no co-crystal structure was or has been subsequently reported, and the observed crystal habit was distinct from the typical tetragonal forms observed for Scn (e.g., Fig. 6B, D, and F). […] In order to resolve this discrepancy, we undertook to directly determine the Fe-NE/Scn co-crystal structure. […]

Scn(C87S/K134A) [3] = target: T3, Scn(C87S/K134A) (Homo sapiens, UniProt P80188, C107S/K154A); test: qualitative binding by co-crystallization (crystal color), Scn(C87S/K134A); conditions: color of complex crystals
T3 construct: made in house
T3 sequence (P80188 21-198 C107S/K154A): as the sequence (P80188 21-198 C107S) above, with K134A counted along it
Text: (§1) Growing somewhat frustrated with our inability to fully ablate ligand binding by even fairly extensive mutation, we focused on alternate mutations involving key Pocket #1: K125A, K134A, and the combination. Both lysine side-chains contribute bracketing Coulombic, cation-π, and hydrophobic interactions to the CAM group in this calyx pocket (Fig. 1A). […] The observed < 40-fold affinity reductions were surprising, given the seemingly crucial interactions contributed by these two side-chains bracketing the key pocket.
(§2) Fig. 6 Effects of mutating proximal calyx-lining residues on ligand recognition. (A) Superpositions of the three Fe-ENT complexes in the crystallographic AU of the complex with the Scn(C87S/K125A) mutant are shown in a stereoview, oriented and styled as in Fig. 3C. […] (C) Superpositions of the three Fe-ENT complexes in the crystallographic AU of the complex with the Scn(C87S/K134A) mutant are shown in a stereoview. […]
(§3) Protein biochemistry and crystallography: Mutations were made as previously described ([Abergel et al., 2008], [Goetz et al., 2002]). […] Initial Scn structure phases were calculated from the 1L6M.pdb structure and optimized by rigid-body refinement using REFMAC5 ([Murshudov et al., 1997]), or by molecular replacement using 1L6M.pdb as the search model with PHASER ([McCoy et al., 2007]). […]

Scn [4] = target: Scn; parameters: method as in Li et al., 2015; conditions: ref Li et al., 2015; cited from earlier work
Scn(C87S/K125A/K134A) = target: T4, Scn(C87S/K125A/K134A) (Homo sapiens, UniProt P80188, C107S/K145A/K154A); test: crystallographic analysis and qualitative co-crystallization binding trials, Scn(C87S/K125A/K134A); conditions: crystals grown in the presence of Fe-ENT
T4 construct: made in house
T4 sequence (P80188 21-198 C107S/K145A/K154A): as the sequence (P80188 21-198 C107S) above, with K125A, K134A counted along it

Scn(C87S/Y106F) = target: Scn(C87S/Y106F); parameters: method as in Abergel et al., 2008; conditions: Y106F mutation; ref Abergel et al., 2008; cited from earlier work
Scn(C87S/K125A) [5] = target: T5, Scn(C87S/K125A) (Homo sapiens, UniProt P80188, C107S/K145A); test: FQ binding assay, Scn(C87S/K125A) mutant
T5 construct: made in house
T5 sequence (P80188 21-198 C107S/K145A): as the sequence (P80188 21-198 C107S) above, with K125A counted along it
Text: as §1
as §3, with “2002]). All clones were confirmed by DNA sequencing. Scn proteins were expressed and purified as previously described ([Abergel et al., 2008], [Bundgaard et al., 1994], [Goetz et al., 2002]). YfiY was expressed and purified as previously described. All crystals were grown using hanging drop vapor diffusion at room temperature.” for “2002]).”

Scn(C87S/K134A) [6] = target: T3, Scn(C87S/K134A); test: FQ binding assay, Scn(C87S/K134A) mutant
Text: as §1
as §3, with “2002]). All clones were confirmed by DNA sequencing. Scn proteins were expressed and purified as previously described ([Abergel et al., 2008], [Bundgaard et al., 1994], [Goetz et al., 2002]). YfiY was expressed and purified as previously described. All crystals were grown using hanging drop vapor diffusion at room temperature.” for “2002]).”

Scn(C87S/K125A) [7] = target: T5, Scn(C87S/K125A); test: qualitative binding by co-crystallization (crystal color), Scn(C87S/K125A); conditions: color of complex crystals
Text: as §1, §2, §3

Scn(C87S/W79A/R81A) = target: Scn(C87S/W79A/R81A); parameters: method as in Abergel et al., 2008; conditions: W79A/R81A mutation; ref Abergel et al., 2008; cited from earlier work
P. aeruginosa = system: P. aeruginosa; parameters: method as in Correnti et al., 2011; conditions: in vitro; ref Correnti et al., 2011; cited from earlier work

O=C(N[C@H]1COC(=O)[C@@H](NC(=O)c2cccc(O)c2O)COC(=O)[C@@H](NC(=O)c2cccc(O)c2O)COC1=O)c1cccc(O)c1O [apo-ENT, enterobactin/enterochelin]
Kd (Scn [1]; apo ligand (no iron)): 3.6 nM

CN1[C@@H]([C@H]2CSC(c3ccccc3O)=N2)SC[C@H]1C(=O)O [PCH, pyochelin]
binding to Scn, qualitative binding assays (Scn [2]): does not appreciably bind | ligand binding in calyx (re-refined crystal structure) (human Scn (C87S); re-refinement of 3U03.pdb diffraction data, under these crystallization conditions): does not bind

NC[C@H](O)c1ccc(O)c(O)c1 [NE, norepinephrine]
ligand electron density in difference Fourier syntheses (human Scn (C87S); co-crystallized with 2:1:1 2,3-DHBA:NE:iron complexes): did not show difference features distinct from the previously-determined Scn:2,3-DHBA:iron complex structure | ligand electron density in difference Fourier syntheses (human Scn (C87S); crystals grown with stoichiometric 3:1 NE:iron mixtures): did not show electron density features assignable to iron or ligand atoms

pyoverdine [PVD]
binding to Scn, qualitative binding assays (Scn [2]): does not appreciably bind

O=C(O)c1ccc(O)c(O)c1 [3,4-DHBA]
binding to Scn (Scn [2]; ref Correnti et al., 2012): do not bind

O=C(N[C@H]1COC(=O)[C@@H](NC(=O)c2cccc(O)c2O)COC(=O)[C@@H](NC(=O)c2cccc(O)c2O)COC1=O)c1cccc(O)c1O.[Fe] [Fe-ENT]
qualitative binding by co-crystallization (Scn(C87S/K134A) [3]): binding also qualitatively confirmed | KD by ITC (Scn [4]): micromolar | ligand binding (crystal structure and co-crystallization trials) (Scn(C87S/K125A/K134A)): lack of ligand binding; also recorded: fully ablating ligand binding | Kd (Scn(C87S/Y106F)): 20 nM | Kd (Scn(C87S/K125A) [5]; FQ, huScn (K125A)): 15 ± 3 nM | affinity reduction versus wild-type Scn (Scn(C87S/K125A) [5]; K125A mutation): < 40 fold | Kd (Scn [1]; wild-type Scn, Abergel et al., 2008, Goetz et al., 2002): 0.4 nM | Kd (Scn(C87S/K134A) [6]; FQ, huScn (K134A)): 10 ± 2 nM | affinity reduction versus wild-type Scn (Scn(C87S/K134A) [6]; K134A mutation): < 40 fold | qualitative binding by co-crystallization (Scn(C87S/K125A) [7]): binding qualitatively confirmed | Kd (Scn(C87S/W79A/R81A)): 71 nM

B1: Scn: glycoprotein Siderocalin, innate immune system protein with bacteriostatic activity (protein, UniProt P80188 21-198, looked up)
Neutrophil …: QDSTSDLIPAPPLSKVPLQQNFQDNQFQGKWYVVGLAGNAILREDKDPQKMYATIYELKEDKSYNVTSVLFRKKKCDYWIRTFVPGCQPGEFTLGNIKSYPGLTSYLVRVVSTNYNQHAMVFFKKVSQNREYFKITLYGRTKELTSELKENFIRFSKSLGLPENHIVFPVPIDQCIDG
growth arrest of P. aeruginosa (P. aeruginosa): does not arrest the growth
